The record followed here is EP2061765B1, “Serine-threonine protein kinase and PARP modulators” (Senhwa Biosciences, Inc., priority 2006, dated 2008).

Some results are limits rather than exact numbers.

One series deals with LNCaP. Description: Cell proliferation assay (Alamar Blue). In kind it is cell-based. The conditions noted are these: Homo sapiens, 96 h, LNCaP cells, four days. In short, it runs like this: (§1)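 Fluorescence read-out (ex 544 nm, em 590 nm) after a four-hour Alamar Blue incubation, which follows four days of compound exposure at 37°C in 5% CO2. Seeding density is 4,000-5,000 cells per well.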
For orientation: Alamar Blue is a resazurin reagent that responds to reducing activity.

A further series concerns MDAMB231. Put plainly: Cell proliferation assay (Alamar Blue). Type of series: cell-based. The conditions noted are these: Homo sapiens, MDA-MB-231, 96 h, MDAMB231 cells, four days. Summed up: as §1
The next series has as its system MCF-7. Description: Cell proliferation assay (Alamar Blue). Type of series: cell-based. The conditions noted are these: Homo sapiens, MCF7, 96 h, MCF-7 cells, four days. Summed up:
as §1

Another series relates to A549. Description: Cell proliferation assay (Alamar Blue). The conditions noted are these: Homo sapiens, 96 h, A549 cells, four days. Type of series: cell-based. Summed up: as §1
The subject of a further series is HL-60. Put plainly: Cell proliferation assay (Alamar Blue). Type of series: cell-based. Conditions: Homo sapiens, 96 h, HL-60 cells, four days. Summed up: as §1
A further series relates to Raji. Description: Cell proliferation assay (Alamar Blue). Conditions: Homo sapiens, 96 h, Raji cells, four days. Type of series: cell-based. In short, it runs like this: as §1
In the next series the test system is K-562. Put plainly: Cell proliferation assay (Alamar Blue). In kind it is cell-based. Conditions: Homo sapiens, K562, 96 h, K-562 cells, four days.
The next series deals with PanC1. Description: Cell proliferation assay (Alamar Blue). Type of series: cell-based. The conditions noted are these: Homo sapiens, PANC-1, 96 h, PanC1 cells, four days. In short, it runs like this: as §1
The next series relates to MCF-10A. Put plainly: Cell proliferation assay (Alamar Blue). Type of series: cell-based. Conditions: Homo sapiens, 96 h, MCF-10A cells, four days. Summed up: as §1
The next series deals with BxPC3. Description: Cell proliferation assay (Alamar Blue). Type of series: cell-based. The conditions noted are these: Homo sapiens, BXPC-3, 96 h, BxPC3 cells, four days. Summed up: as §1
The next series has as its system H460. Put plainly: Cell proliferation assay (Alamar Blue). The conditions noted are these: Homo sapiens, NCI-H460, 96 h, H460 cells, four days. In kind it is cell-based. Summed up: as §1
Another series relates to SK-OV-3. Put plainly: Cell proliferation assay (Alamar Blue). Type of series: cell-based. Conditions: Homo sapiens, 96 h, SK-OV-3 cells, four days. In short, it runs like this:
as §1

A further series relates to COLO205. Description: Cell proliferation assay (Alamar Blue). The conditions noted are these: Homo sapiens, COLO 205, 96 h, COLO205 cells, four days. In kind it is cell-based. In short, it runs like this:
as §1

In the next series the test system is HT29. Description: Cell proliferation assay (Alamar Blue). Type of series: cell-based. The conditions noted are these: Homo sapiens, HT-29, 96 h, HT29 cells, four days. Summed up: as §1
The next series deals with HL-60/MX2. Description: Cell proliferation assay (Alamar Blue). In kind it is cell-based. Conditions: Homo sapiens, HL60/MX2, 96 h, HL-60/MX2 cells, four days. In short, it runs like this:
as §1

Series [1] can be described thus: Pharmacokinetics after IV and PO dosing.
Protocol: The pharmacokinetics properties of drugs were investigated in ICR mice following an intravenous (IV) bolus and oral (PO) doses of drug at 5 mg/kg and 25 mg/kg respectively. Blood samples were collected at predetermined times and the plasma separated. Plasma was separated from the blood samples collected at 5,15 and 30 minutes and 1, 2, 4, 8 and 24 hours post-dose.
Drug levels were quantified by the LC/MS/MS method described below. Noncompartmental pharmacokinetic analysis was applied for intravenous administration. […] The terminal t1/2 and Co were calculated using the last three and the first three data points, respectively
Bioanalysis was performed using a Quattro Micro LC/MS/MS instrument in the MRM detection mode, with an internal standard (IS). Briefly, 15 µL plasma samples were prepared for analysis using protein precipitation with 120 µL of acetonitrile. The supernatants were transferred into a 96 well plate and subjected to LC-MS/MS analysis using a Phenomenex Polar-RP HPLC column. The mobile phases were 10 mM NH4HCO3 in water (Solution-A) and 10 mM NH4HCO3 in methanol (Solution-B). […] Quantitation of the analytes was performed in the batch mode with two bracketing calibration curves according to the bioanalytical sample list

Consider `O=C(O)c1ccc2c(c1)nc(Nc1ccccc1)c1ccncc12` [drawing 372], for which the IC50 stood at 8.18 µM in the series with LNCaP; 2.66 µM in the series on MDAMB231; 10.8 µM in the series on MCF-7; 4.16 µM in the series on A549; 4.86 µM in the series with HL-60; 13.7 µM with Raji. This compound had an IC50 in the series with K-562 of 4.01 µM.

With `O=C(O)c1ccc2c(c1)nc(Nc1ccc(F)c(Cl)c1)c1ccncc12` [drawing 373], the IC50 with LNCaP turned out to be 4.57 µM; in the series on MDAMB231, 6.13 µM; in the series with MCF-7, 8.24 µM; in the series on A549, 6.83 µM; in the series on HL-60, 1.92 µM; with Raji it was 4.51 µM. Besides, the midpoint of inhibition in the series on K-562, the IC50, lay at 4.95 µM.

Regarding `O=C(O)c1ccc2c(c1)nc(Nc1cccc(Cl)c1)c1ccncc12` [drawing 376], the IC50 was 4.89 µM in the series with LNCaP; 17.7 µM in the series on MCF-7; 6.59 µM with A549; 2.64 µM in the series on HL-60; 3.32 µM in the series with Raji; 2.99 µM with K-562.

With `O=C(O)c1ccc2c(c1)nc(Nc1cc(F)cc(F)c1)c1ncncc12` [drawing 377], the IC50 is 1.83 µM with LNCaP; 3.1 µM with MDAMB231; 2.02 µM in the series with MCF-7; 24.6 µM in the series on A549; 1.85 µM in the series with HL-60; 8.47 µM in the series with Raji. The compound further displayed an IC50 in the series on K-562 of 2.41 µM.

On to `O=C(O)c1ccc2c(c1)nc(Nc1cccc(F)c1)c1ncncc12` [drawing 378], for which the IC50 in the series on LNCaP was determined as 1.36 µM; with MDAMB231 it was 0.84 µM; in the series with MCF-7, 1.06 µM; with A549, 14.1 µM; in the series on HL-60, 9.68 µM; with Raji it was 4.51 µM. In the series with K-562, the IC50 was 1.77 µM.

With `O=C(O)c1ccc2c(c1)nc(Nc1cccc(Cl)c1)c1ncncc12` [drawing 379], the IC50 came to 1.56 µM with LNCaP; 1.18 µM with MDAMB231; 1.79 µM with MCF-7; 28.5 µM in the series on A549; 7.35 µM in the series with HL-60; 1.13 µM in the series on K-562.

With `C#Cc1cccc(Nc2nc3cc(C(=O)O)ccc3c3cncnc23)c1` [drawing 380], the IC50 with LNCaP amounted to 1.4 µM; in the series on MDAMB231, 4.25 µM; with MCF-7, 1.27 µM; in the series with A549 it was 21.2 µM; with HL-60, 4.49 µM; in the series on Raji, 3.38 µM. For the same compound, the IC50 in the series with K-562 was determined as 1.2 µM.

On to `CNc1ncc2c(n1)c(Nc1ccccc1)nc1cc(C(=O)O)ccc12` [drawing 383], for which the IC50 amounted to 1.44 µM in the series on LNCaP; 2.38 µM in the series on MDAMB231; 3.4 µM in the series with MCF-7; 13.9 µM in the series with A549; 0.73 µM with HL-60; 4.97 µM in the series with Raji.

Take `O=C(O)c1ccc2c(c1)nc(Nc1ccc(Cl)cc1)c1ccncc12` [drawing 384]: the IC50 came out at 7.39 µM with LNCaP; 3.79 µM in the series with MDAMB231; 0.76 µM in the series with MCF-7; 9.74 µM with A549; 3.74 µM in the series on HL-60; 5.46 µM with Raji. The compound also came in with an IC50 in the series on K-562 of 8.65 µM.

With `C#Cc1cccc(Nc2nc3cc(C(=O)O)ccc3c3cnccc23)c1` [drawing 385], the IC50 in the series with LNCaP is 17.1 µM; in the series with MDAMB231, 11.8 µM; in the series on MCF-7, 1.43 µM; in the series on A549 it was 30.2 µM; in the series with HL-60 it was 5.59 µM; with Raji, 4.28 µM. Moreover, in the series with K-562, the midpoint of inhibition, the IC50, lay at 3.33 µM.

On to `O=C(O)c1ccc2c(c1)nc(Nc1cc(F)cc(F)c1)c1ccncc12` [drawing 387], for which the IC50 with LNCaP was 10.8 µM; in the series with MDAMB231, 11 µM; in the series on MCF-7, 1.89 µM; in the series with A549, 27.4 µM; in the series with HL-60, 4.81 µM; in the series on Raji it was 6.35 µM. Further, the IC50 with K-562 amounted to 3.26 µM.

Turning to `O=C(O)c1ccc2c(c1)nc(Nc1ccccc1)c1ccncc12` [drawing 443], the IC50 with PanC1 was > 50 µM; in the series on MCF-10A it was 3.84 µM; in the series with BxPC3, 10.8 µM; in the series on H460 it was 37.5 µM; in the series on SK-OV-3 it was 20.7 µM; with COLO205 it was 8.92 µM.

Consider `O=C(O)c1ccc2c(c1)nc(Nc1ccc(F)c(Cl)c1)c1ccncc12` [drawing 444], for which the IC50 with PanC1 amounted to 1.84 µM; in the series on BxPC3, 1.5 µM; in the series with H460 it was 8.69 µM; with SK-OV-3, 7.33 µM; in the series with COLO205 it was 2.2 µM.

Regarding `O=C(O)c1ccc2c(c1)nc(Nc1cccc(F)c1)c1ccncc12` [drawing 447], in the series on HT29, the IC50 was found to be 12.8 µM.

Consider `O=C(O)c1ccc2c(c1)nc(Nc1cccc(Cl)c1)c1ccncc12` [drawing 448], for which the IC50 in the series on PanC1 was 17.8 µM; in the series with HL-60/MX2, 10.5 µM; in the series with HT29, 1.56 µM; in the series with MCF-10A it was 0.53 µM; in the series on BxPC3, 2.75 µM; with H460 it was 10.3 µM. Also, the IC50 with SK-OV-3 came out at 9.03 µM; in the series on COLO205, 1.96 µM.

As for `O=C(O)c1ccc2c(c1)nc(Nc1cc(F)cc(F)c1)c1ncncc12` [drawing 449], the IC50 in the series with PanC1 was determined as 9.34 µM; in the series on HT29, 12.4 µM; in the series with MCF-10A it was 1.08 µM; in the series on BxPC3, 3.34 µM; in the series on H460 it was 4.19 µM; in the series on SK-OV-3, 6.98 µM. The same compound yielded an IC50 in the series with COLO205 of 5.69 µM.

With `O=C(O)c1ccc2c(c1)nc(Nc1cccc(F)c1)c1ncncc12` [drawing 450], the IC50 came out at 3.79 µM in the series on PanC1; 17 µM with HT29; 3.48 µM in the series on BxPC3; 6.16 µM with H460; 14.4 µM with SK-OV-3; 6.16 µM in the series on COLO205.

Take `O=C(O)c1ccc2c(c1)nc(Nc1cccc(Cl)c1)c1ncncc12` [drawing 451]: the IC50 in the series with PanC1 amounted to 18.7 µM; with HT29, 13 µM; in the series on BxPC3, 1.48 µM; in the series with H460 it was 4.1 µM; in the series with SK-OV-3, 8.97 µM; in the series on COLO205 it was 8.62 µM.

Regarding `C#Cc1cccc(Nc2nc3cc(C(=O)O)ccc3c3cncnc23)c1` [drawing 452], the IC50 was determined as 2.34 µM with PanC1; 8.81 µM in the series with HL-60/MX2; 12.4 µM in the series with HT29; 0.64 µM in the series on MCF-10A; 2.58 µM with BxPC3; 7.33 µM with H460. The IC50 was determined as 20.2 µM with SK-OV-3 and 7.04 µM in the series with COLO205.

As for `CNc1ncc2c(n1)c(Nc1ccccc1)nc1cc(C(=O)O)ccc12` [drawing 455], the IC50 in the series with PanC1 stood at 15.9 µM; in the series on HL-60/MX2, 5.68 µM; in the series with HT29, 15.3 µM; with BxPC3, 1.83 µM; with H460 it was 4.06 µM; with SK-OV-3, 1.06 µM. In the series with COLO205, this compound registered an IC50 of 9.56 µM.

For the compound `O=C(O)c1ccc2c(c1)nc(Nc1ccc(Cl)cc1)c1ccncc12` [drawing 456], the IC50 with PanC1 came out at 25.8 µM; in the series on HT29, 26.9 µM; with BxPC3 it was 6.38 µM; in the series on H460, 9.1 µM; in the series on SK-OV-3, 15.3 µM; with COLO205 it was 1.57 µM.

Turning to `C#Cc1cccc(Nc2nc3cc(C(=O)O)ccc3c3cnccc23)c1` [drawing 457], the IC50 worked out at 4.07 µM in the series with PanC1; 45.5 µM in the series with HT29; 0.73 µM in the series on MCF-10A; 3.7 µM with BxPC3; 13.8 µM with H460; 23.4 µM with SK-OV-3. The compound also gave an IC50 with COLO205 of 4.44 µM.

As for `O=C(O)c1ccc2c(c1)nc(Nc1cc(F)cc(F)c1)c1ccncc12` [drawing 459], the IC50 with PanC1 was 24 µM; in the series with HT29, 16.6 µM; in the series with BxPC3 it was 1.63 µM; in the series on H460, 7.53 µM; in the series on SK-OV-3, 10.1 µM; in the series with COLO205, 3.62 µM.

With `N#Cc1cccc(Nc2nc3cc(C(=O)O)ccc3c3cnccc23)c1` [drawing 460], the IC50 in the series with PanC1 is > 50 µM; in the series with HT29, 41.8 µM; in the series with BxPC3 it was 3.62 µM.

Take `C#Cc1cccc(Nc2nc3cc(C(=O)O)ccc3c3cncnc23)c1` [drawing 547]: in [1] (ICR mice, PO 24.5 mg/kg), the “F(0-Inf)” value was found to be 31.1%, the “F([…])” value is 26.5% and the Kel worked out at 0.0594 h⁻¹. In addition, the AUC(0-t) at 8 h in series [1] (mouse, plasma, po, 24.5 mg/kg) amounted to 6000 ng·h/mL.

Usually IC50 stands for the concentration that gives 50% inhibition. What is called AUC(0-t) is exposure summed from dosing to a finite time, without extrapolation to infinity. Read a high AUC(0-t) as more exposure.
